Key:
rat [1] = conditions: Combined chronic toxicity/carcinogenicity, sprague dawley, Oral, Feed, dose end: 104 week, group: systemic
rat [2] = conditions: Combined chronic toxicity/carcinogenicity, sprague dawley, Oral, Feed, dose end: 105 week, group: systemic
rabbit [3] = conditions: Prenatal developmental toxicity study, new zealand white, Oral, Gavage/Intubation, dose end: 18 GD
mouse [4] = conditions: Carcinogenicity, cd1, Oral, [Not Specified], dose end: 18 month, group: systemic
rat [5] = conditions: Subchronic oral toxicity in rodents, sprague dawley, Gavage/Intubation, dose end: 12 week, group: systemic, systemic / clinical chemistry / albumin / albumin + systemic / clinical chemistry / alkaline phosphatase (alp/alk) / alkaline phosphatase (…
rat [6] = conditions: Developmental neurotoxicity study; other; Oral; Gavage/Intubation; dose end: 112 PND; group: cannot be grouped; systemic / in life observation / body weight / offspring (pup) weight gain
mouse [7] = conditions: Carcinogenicity, b6c3f1, Oral, Gavage/Intubation, dose end: 103 week, group: systemic
mouse [8] = conditions: Prenatal developmental toxicity study; cd1; Oral; Gavage/Intubation; dose end: 15 GD; group: maternal; systemic / in life observation / clinical signs / ataxia + systemic / in life observation / mortality / mortality
rat [9] = conditions: Carcinogenicity; fischer; Oral; Gavage/Intubation; dose end: 103 week; group: systemic; systemic / pathology microscopic / spleen / fibrosis + systemic / pathology microscopic / stomach / dysplasia + systemic / pathology …
mouse [10] = conditions: Sub-acute repeat dose toxicity, b6c3f1, Oral, Gavage/Intubation, dose end: 16 day, group: systemic
rat [11] = conditions: Subchronic oral toxicity in rodents, fischer, Gavage/Intubation, dose end: 13 week, group: systemic
rat [12] = conditions: Sub-acute repeat dose toxicity, fischer, Oral, Gavage/Intubation, dose end: 16 day, group: systemic
mouse [13] = conditions: Subchronic oral toxicity in rodents, b6c3f1, Gavage/Intubation, dose end: 13 week, group: systemic
rat [14] = conditions: Combined chronic toxicity/carcinogenicity; wistar; Oral; Feed; dose end: 28 month; group: systemic; systemic / in life observation / body weight / body weight + systemic / in life observation / body weight / body weight gain
dog [15] = conditions: Chronic toxicity, beagle, Oral, Capsule, dose end: 12 month, group: systemic
rat [16] = conditions: Multigenerational reproductive toxicity study, sprague dawley, Oral, Feed, dose end: 2 generation
rabbit [17] = conditions: Prenatal developmental toxicity study, dutch, Oral, Gavage/Intubation, dose end: 18 GD
dog [18] = conditions: Chronic toxicity, beagle, Oral, Feed, dose end: 12 month, group: systemic
rat [19] = conditions: Subchronic oral toxicity in rodents, wistar, Feed, dose end: 3 month, group: systemic
rat [20] = conditions: Prenatal developmental toxicity study, wistar, Oral, Gavage/Intubation, dose end: 16 GD
[21] = systemic / in life observation / body weight / body weight + systemic / in life observation / body weight / body weight gain + systemic / in…
[22] = systemic / in life observation / clinical signs / fur (altered appearance) + systemic / in life observation / clinical signs / urine …
[23] = systemic / clinical chemistry / aspartate aminotransferase (ast/sgot) / aspartate aminotransferase (ast/sgot)
[24] = systemic / in life observation / mortality / mortality + systemic / pathology gross / mammary gland / cyst + systemic / pathology gross / …
[25] = group: developmental, developmental / developmental malformation / bone / supernumerary
[26] = group: developmental, developmental / developmental malformation / bone / supernumerary + developmental / developmental malformation / heart / [other] + …
[27] = group: maternal, systemic / in life observation / body weight / body weight gain + systemic / in life observation / food consumption / food consumption
[28] = systemic / in life observation / body weight / body weight
[29] = systemic / in life observation / food consumption / food consumption + systemic / in life observation / body weight / body weight
[30] = systemic / in life observation / body weight / body weight + systemic / pathology microscopic / harderian gland / adenoma + systemic / …
[31] = systemic / in life observation / body weight / body weight + systemic / in life observation / clinical signs / defecation (diarrhea) + …
[32] = systemic / pathology gross / sperm measure / sperm count + systemic / pathology gross / sperm measure / sperm motility
[33] = systemic / in life observation / body weight / body weight + systemic / in life observation / mortality / mortality + systemic / pathology …
[34] = systemic / in life observation / body weight / body weight + systemic / pathology gross / sperm measure / sperm count + systemic / pathology…
[35] = systemic / pathology gross / sperm measure / sperm count + systemic / pathology gross / sperm measure / sperm motility + systemic / …
[36] = systemic / clinical chemistry / gamma glutamyl transferase (ggt) / gamma glutamyl transferase (ggt)
[37] = group: offspring, systemic / in life observation / clinical signs / reduced body size
[38] = group: offspring, systemic / in life observation / clinical signs / reduced body size + systemic / in life observation / body weight / offspring (pup) weight
[39] = group: parental, systemic / in life observation / body weight / body weight + systemic / in life observation / body weight / body weight gain + systemic / in…
[40] = group: parental, systemic / in life observation / body weight / body weight + systemic / in life observation / food consumption / food consumption
[41] = group: developmental, developmental / developmental malformation / bone / incomplete ossification + developmental / developmental malformation / bone / misshapen…
[42] = group: maternal, reproductive / reproductive performance / aborted / aborted + systemic / in life observation / food consumption / food consumption + …
[43] = systemic / hematology / hemoglobin (hgb) / hemoglobin (hgb) + systemic / in life observation / body weight / body weight gain + systemic / …
[44] = systemic / urinalysis / appearance and color / appearance and color
[45] = group: developmental, developmental / developmental malformation / bone / bent + developmental / developmental malformation / bone / incomplete ossification + …
[46] = group: maternal, reproductive / reproductive performance / resorptions / resorptions + systemic / in life observation / body weight / body weight gain + …

Q: Which results are given for `CC1(C)C(=O)N(Cl)C(=O)N1Cl` [1,3-Dichloro-5,5-dimethylhydantoin]?
A: NOAEL (rat [1]; [21]): 300 mg/kg/day; LOAEL (rat [1]; systemic / in life observation / body weight / body weight + systemic / in life observation / body weight / body weight gain + systemic / …): 1000 mg/kg/day; LEL (rat [1]; [22]): 100 mg/kg/day; NEL (rat [1]; [22]): < 100 mg/kg/day; LEL (rat [2]; [23]): 100 mg/kg/day; NEL (rat [2]; [23]): < 100 mg/kg/day; LOAEL (rat [2]; [24]): 1000 mg/kg/day; NOAEL (rat [2]; [24]): 320 mg/kg/day; LEL (rabbit [3]; [25]): 500 mg/kg/day; LOAEL (rabbit [3]; [25]): 500 mg/kg/day; NEL (rabbit [3]; [26]): 100 mg/kg/day; NOAEL (rabbit [3]; [26]): 100 mg/kg/day; LEL (rabbit [3]; [27]): 1000 mg/kg/day; LOAEL (rabbit [3]; [27]): 1000 mg/kg/day; NEL (rabbit [3]; [27]): 500 mg/kg/day; NOAEL (rabbit [3]; [27]): 500 mg/kg/day; LEL (mouse [4]; [28]): 320 mg/kg/day; NEL (mouse [4]; systemic / in life observation / body weight / body weight + systemic / in life observation / food consumption / food consumption): 100 mg/kg/day; LOAEL (mouse [4]; [29]): > 1000 mg/kg/day; NOAEL (mouse [4]; [29]): ≥ 1000 mg/kg/day

Q: How did the LEL (rat [5]) turn out when `CC1=C(/C=C/C(C)=C/C=C/C(C)=C\C(=O)O)C(C)(C)CCC1` [13-cis Retinoic acid] was run?
A: 4 mg/kg/day

Q: And the LOAEL (rat [5])?
A: > 40 mg/kg/day

Q: And the NEL (rat [5])?
A: < 4 mg/kg/day

Q: And the NOAEL (rat [5])?
A: ≥ 40 mg/kg/day

Q: `CN(C)CCCN1c2ccccc2Sc2ccc(Cl)cc21` [Chlorpromazine] was tested. Which LEL (rat [6]) did it give?
A: 3 mg/kg/day

Q: And the LOAEL (rat [6])?
A: > 9 mg/kg/day

Q: What about the NEL (rat [6]) of the same compound?
A: 1 mg/kg/day

Q: What about the NOAEL (rat [6]) of the same compound?
A: ≥ 9 mg/kg/day

Q: How did the LEL (mouse [7]; [30]) turn out when `OCC1CO1` (stereo unspecified) [Glycidol] was run?
A: 25 mg/kg/day

Q: What about the NEL (mouse [7]; [30]) of the same compound?
A: < 25 mg/kg/day

Q: What about the NOAEL (mouse [7]; [30]) of the same compound?
A: 25 mg/kg/day

Q: What about the LOAEL (mouse [7]; systemic / in life observation / body weight / body weight + systemic / pathology microscopic / stomach / hyperplasia) of the same compound?
A: 50 mg/kg/day

Q: And the LEL (mouse [8])?
A: 200 mg/kg/day

Q: What about the LOAEL (mouse [8]) of the same compound?
A: > 200 mg/kg/day

Q: What about the NEL (mouse [8]) of the same compound?
A: 150 mg/kg/day

Q: And the NOAEL (mouse [8])?
A: ≥ 200 mg/kg/day

Q: And the LEL (rat [9])?
A: 37.5 mg/kg/day

Q: And the LOAEL (rat [9])?
A: 37.5 mg/kg/day

Q: And the NEL (rat [9])?
A: < 37.5 mg/kg/day

Q: What about the NOAEL (rat [9]) of the same compound?
A: < 37.5 mg/kg/day

Q: And the LEL (mouse [10]; systemic / in life observation / body weight / body weight + systemic / in life observation / clinical signs / defecation (diarrhea))?
A: 150 mg/kg/day

Q: What about the LOAEL (mouse [10]; [31]) of the same compound?
A: > 600 mg/kg/day

Q: What about the NEL (mouse [10]; [31]) of the same compound?
A: 75 mg/kg/day

Q: What about the NOAEL (mouse [10]; [31]) of the same compound?
A: ≥ 600 mg/kg/day

Q: And the NOAEL (rat [11]; systemic / in life observation / body weight / body weight + systemic / pathology microscopic / brain / necrosis + systemic / in life …)?
A: 100 mg/kg/day

Q: And the LOAEL (rat [11]; systemic / in life observation / body weight / body weight + systemic / pathology microscopic / brain / necrosis + systemic / pathology …)?
A: 200 mg/kg/day

Q: What about the LEL (rat [11]; [32]) of the same compound?
A: 25 mg/kg/day

Q: And the NEL (rat [11]; [32])?
A: < 25 mg/kg/day

Q: And the LEL (rat [12]; [28])?
A: 150 mg/kg/day

Q: What about the LOAEL (rat [12]; [28]) of the same compound?
A: 150 mg/kg/day

Q: What about the NEL (rat [12]; [33]) of the same compound?
A: 75 mg/kg/day

Q: What about the NOAEL (rat [12]; [33]) of the same compound?
A: 75 mg/kg/day

Q: What about the LEL (mouse [13]; [34]) of the same compound?
A: 19 mg/kg/day

Q: What about the NEL (mouse [13]; [34]) of the same compound?
A: < 19 mg/kg/day

Q: What about the LOAEL (mouse [13]; [35]) of the same compound?
A: 75 mg/kg/day

Q: What about the NOAEL (mouse [13]; [35]) of the same compound?
A: 38 mg/kg/day

Q: What does the source list for `CCCN(CCC)c1c([N+](=O)[O-])cc(C(F)(F)F)cc1[N+](=O)[O-]` [Trifluralin]?
A: LEL (rat [14]): 169 mg/kg/day; LOAEL (rat [14]): 169 mg/kg/day; NEL (rat [14]): 40 mg/kg/day; NOAEL (rat [14]): 40 mg/kg/day; LEL (dog [15]; [36]): 0.75 mg/kg/day; NEL (dog [15]; [36]): < 0.75 mg/kg/day; NOAEL (dog [15]; systemic / clinical chemistry / gamma glutamyl transferase (ggt) / gamma glutamyl transferase (ggt) + systemic / in life observation / body …): 2.4 mg/kg/day; LOAEL (dog [15]; [21]): 40 mg/kg/day; LEL (rat [16]; [37]): 47 mg/kg/day; LOAEL (rat [16]; [37]): 47 mg/kg/day; NEL (rat [16]; [38]): 15 mg/kg/day; NOAEL (rat [16]; [38]): 15 mg/kg/day; NEL (rat [16]; [39]): 15 mg/kg/day; NOAEL (rat [16]; [39]): 15 mg/kg/day; LEL (rat [16]; [40]): 47 mg/kg/day; LOAEL (rat [16]; [40]): 47 mg/kg/day; LEL (rabbit [17]; [41]): 500 mg/kg/day; LOAEL (rabbit [17]; [41]): 500 mg/kg/day; NEL (rabbit [17]; [41]): 225 mg/kg/day; NOAEL (rabbit [17]; [41]): 225 mg/kg/day; LEL (rabbit [17]; [42]): 225 mg/kg/day; LOAEL (rabbit [17]; [42]): 225 mg/kg/day; NEL (rabbit [17]; [42]): 100 mg/kg/day; NOAEL (rabbit [17]; [42]): 100 mg/kg/day; NEL (dog [18]; systemic / hematology / methemoglobin / methemoglobin + systemic / clinical chemistry / cholesterol / cholesterol + systemic / clinical …): 0.8 mg/kg/day; LOAEL (dog [18]; systemic / organ weight / liver / absolute): 3.8 mg/kg/day; NOAEL (dog [18]; systemic / organ weight / liver / absolute + systemic / clinical chemistry / cholesterol / cholesterol + systemic / clinical chemistry / …): 0.8 mg/kg/day; LEL (dog [18]; systemic / organ weight / liver / absolute + systemic / hematology / methemoglobin / methemoglobin): 3.8 mg/kg/day; LOAEL (rat [19]; [43]): 392 mg/kg/day; NOAEL (rat [19]; [43]): 154 mg/kg/day; LEL (rat [19]; [44]): 59 mg/kg/day; NEL (rat [19]; [44]): < 59 mg/kg/day; LEL (rat [20]; [45]): 500 mg/kg/day; LOAEL (rat [20]; [45]): 500 mg/kg/day; NEL (rat [20]; [45]): 100 mg/kg/day; NOAEL (rat [20]; [45]): 100 mg/kg/day; LEL (rat [20]; [46]): 500 mg/kg/day; LOAEL (rat [20]; [46]): 500 mg/kg/day; NEL (rat [20]; [46]): 100 mg/kg/day; NOAEL (rat [20]; [46]): 100 mg/kg/day

Source: EPA's ToxRefDB 2
